From PubChem BioAssay (NCI)
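Assay format: 96-well plates, 48-hour exposure. At the GI50, growth is halved. Definition used: TGI = concentration required for complete inhibition of growth.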

Key:
Experiment in all cases: NCI-60 cell line screen, 48 h
[1] = test system: ACHN renal
[2] = test system: COLO 205 colon
[3] = test system: DU-145 prostate
[4] = test system: HCC-2998 colon
[5] = test system: HCT-15 colon
[6] = test system: HOP-62 NSCLC
[7] = test system: HOP-92 NSCLC
[8] = test system: HT29 colon
[9] = test system: K-562 leukemia
[10] = test system: KM12 colon
[11] = test system: LOX IMVI melanoma
[12] = test system: M14 melanoma
[13] = test system: MALME-3M melanoma
[14] = test system: MCF7 breast
[15] = test system: MDA-N
[16] = test system: NCI-H23 lung
[17] = test system: OVCAR-3 ovarian
[18] = test system: OVCAR-5 ovarian
[19] = test system: PC-3 prostate
[20] = test system: RPMI-8226 leukemia
[21] = test system: SF-295 CNS
[22] = test system: SF-539 CNS
[23] = test system: SK-MEL-2 melanoma
[24] = test system: SK-MEL-28 melanoma
[25] = test system: SNB-75 CNS
[26] = test system: SW-620 colon
[27] = test system: TK-10 renal
[28] = test system: U251 CNS
[29] = test system: UACC-257 melanoma
[30] = test system: UACC-62 melanoma
[31] = test system: UO-31 renal
[32] = test system: 786-0 renal
[33] = test system: A498 renal
[34] = test system: A549 NSCLC
[35] = test system: BT-549 breast
[36] = test system: CAKI-1 renal
[37] = test system: CCRF-CEM leukemia
[38] = test system: EKVX NSCLC
[39] = test system: HCT-116 colon
[40] = test system: HL-60(TB) leukemia
[41] = test system: HS 578T breast
[42] = test system: IGROV1 ovarian
[43] = test system: MDA-MB-231 breast
[44] = test system: MDA-MB-435
[45] = test system: MOLT-4 leukemia
[46] = test system: NCI-H226 lung
[47] = test system: NCI-H460 lung
[48] = test system: NCI-H522 lung
[49] = test system: NCI/ADR-RES ovarian
[50] = test system: OVCAR-4 ovarian
[51] = test system: OVCAR-8 ovarian
[52] = test system: RXF 393 renal
[53] = test system: SF-268 CNS
[54] = test system: SK-MEL-5 melanoma
[55] = test system: SK-OV-3 ovarian
[56] = test system: SN12C renal
[57] = test system: SR leukemia
[58] = test system: T-47D breast

## COC[C@H]1C(=O)NCC(=O)N2N=CCC[C@H]2C(=O)N(O)[C@H](C)C(=O)O[C@@H](C(C)C)[C@H](NC(=O)[C@@](C)(O)[C@]2(O)CC[C@@H](CC(C)C)[C@H](C)O2)C(=O)N2NCCC[C@@H]2C(=O)N1O
[1]
  TGI: 0.147 µM
[2]
  TGI: 0.0319 µM
[3]
  TGI: 0.168 µM
[4]
  TGI: 0.0279 µM
[5]
  TGI: 0.253 µM
[6]
  TGI: 0.0322 µM
[7]
  TGI: 0.0334 µM
[8]
  TGI: 0.0307 µM
[9]
  TGI: > 100 µM
[10]
  TGI: 0.0276 µM
[11]
  TGI: 0.0316 µM
[12]
  TGI: 0.0355 µM
[13]
  TGI: 0.0307 µM
[14]
  TGI: 0.0297 µM
[15]
  TGI: 0.0323 µM
[16]
  TGI: 0.0312 µM
[17]
  TGI: 0.0362 µM
[18]
  TGI: 0.0341 µM
[19]
  TGI: 0.0318 µM
[20]
  TGI: > 100 µM
[21]
  TGI: 0.0311 µM
[22]
  TGI: 0.0297 µM
[23]
  TGI: 0.0276 µM
[24]
  TGI: 0.0315 µM
[25]
  TGI: < 0.0159 µM
[26]
  TGI: 0.03 µM
[27]
  TGI: 0.0322 µM
[28]
  TGI: 0.03 µM
[29]
  TGI: 0.0328 µM
[30]
  TGI: 0.0322 µM
[31]
  TGI: 0.341 µM

## Oc1c(O)c(Cl)c(Cl)c(Cl)c1Cl
[32]
  GI50: 7.98 µM
  TGI: 33 µM
[33]
  GI50: 2.67 µM
  TGI: 8.92 µM
[34]
  GI50: 4.2 µM
  TGI: 24.1 µM
[1]
  GI50: 5.15 µM
  TGI: 35.5 µM
[35]
  GI50: 4.51 µM
  TGI: 31.5 µM
[36]
  GI50: 6.33 µM
  TGI: 23 µM
[37]
  GI50: 2.73 µM
  TGI: 27.7 µM
[2]
  GI50: 12.5 µM
  TGI: 33.7 µM
[3]
  GI50: 7.1 µM
  TGI: > 100 µM
[38]
  GI50: 2.95 µM
  TGI: 18.9 µM
[4]
  GI50: 16.3 µM
  TGI: 30.7 µM
[39]
  GI50: 2.88 µM
  TGI: 8.75 µM
[5]
  GI50: 3.56 µM
  TGI: 19.4 µM
[40]
  GI50: 1.85 µM
  TGI: 7.21 µM
[6]
  GI50: 4.54 µM
  TGI: 17.3 µM
[7]
  GI50: 2.11 µM
  TGI: 7.37 µM
[41]
  GI50: 3.75 µM
  TGI: 23 µM
[8]
  GI50: 4.89 µM
  TGI: 22.4 µM
[42]
  GI50: 3.06 µM
  TGI: 10.4 µM
[9]
  GI50: 3.49 µM
  TGI: > 100 µM
[10]
  GI50: 3.96 µM
  TGI: 19.7 µM
[11]
  GI50: 3.65 µM
  TGI: 20.3 µM
[12]
  GI50: 3.51 µM
  TGI: 15.4 µM
[13]
  GI50: 2.83 µM
  TGI: 13.4 µM
[14]
  GI50: 3.25 µM
  TGI: 16.2 µM
[43]
  GI50: 5.1 µM
  TGI: 38.5 µM
[44]
  GI50: 3.42 µM
  TGI: 18.1 µM
[45]
  GI50: 3.51 µM
  TGI: 69.7 µM
[46]
  GI50: 4.62 µM
  TGI: 24.3 µM
[16]
  GI50: 3.04 µM
  TGI: 9.28 µM
[47]
  GI50: 2.62 µM
  TGI: 13.3 µM
[48]
  GI50: 1.65 µM
  TGI: 4.54 µM
[49]
  GI50: 3.01 µM
  TGI: 10.3 µM
[17]
  GI50: 2.44 µM
  TGI: 14.4 µM
[50]
  GI50: 2.44 µM
  TGI: 8.86 µM
[18]
  GI50: 9.62 µM
  TGI: 42.5 µM
[51]
  GI50: 2.89 µM
  TGI: 13.9 µM
[19]
  GI50: 3.43 µM
  TGI: 18.1 µM
[20]
  GI50: 2.23 µM
  TGI: 7.38 µM
[52]
  GI50: 1.61 µM
  TGI: 13.9 µM
[53]
  GI50: 3.09 µM
  TGI: > 100 µM
[21]
  GI50: 3.23 µM
  TGI: 12.7 µM
[22]
  GI50: 3.72 µM
  TGI: 14.7 µM
[23]
  GI50: 4.1 µM
  TGI: 15.2 µM
[24]
  GI50: 4.99 µM
  TGI: 37.2 µM
[54]
  GI50: 3.37 µM
  TGI: 13.4 µM
[55]
  GI50: 16 µM
  TGI: 44.5 µM
[56]
  GI50: 3.79 µM
  TGI: 50 µM
[25]
  GI50: 2.52 µM
  TGI: 21 µM
[57]
  GI50: 2.73 µM
  TGI: > 100 µM
[26]
  GI50: 3.17 µM
  TGI: 30.3 µM
[58]
  GI50: 3.26 µM
  TGI: 11.3 µM
[27]
  GI50: 9.42 µM
  TGI: 47.7 µM
[28]
  GI50: 4.21 µM
  TGI: 86.2 µM
[29]
  GI50: 2.92 µM
  TGI: 9.6 µM
[30]
  GI50: 2.95 µM
  TGI: 10.2 µM
[31]
  GI50: 2.74 µM
  TGI: 13.1 µM
